According to patent US20240263147A1, “CARDIAC ORGANOID AND ANTI-ELECTRO-MITOCHONDRIAL DESYNCHRONIZATION THERAPY” (YISSUM RESEARCH DEVELOPMENT COMPANY OF THE HEBREW …, priority 2021, published 2024):
Entries after “also recorded” stand apart in the source; their conditions may differ.

Legend:
[1] = system: vascularized cardiac organoids; experiment: Integrated metabolic-electro-mechanical sensor chip: simultaneous contraction, field potential and interstitial oxygen; type: cell-based, human; conditions: for reversal of mitoxantrone-induced arrhythmic behavior: 100 μM metformin concurrent with 10 μM mitoxantrone
porcine cardiac tissue = system: porcine cardiac tissue
Excerpt: The tissue was procured post-mortem from a 70 kg domestic female pig that underwent a laparoscopic liver operation (Ethical approval number MD-21-16533-3) and was euthanized using a lethal dose of potassium chloride. […] The lung was retracted, and the pericardium was incised.
The anterior wall of the left ventricle was incised from base to apex and several slices measuring 2-3 mm in length and 1-2 mm thick were obtained using a #10 scalpel blade. Cardiac tissues were further cut into 500±200 μm thick slices and washed thoroughly with 37° C. pre-warmed ex-vivo medium composed of M199 medium, supplemented with 1×insulin-transferrin-selenium (ITS), 10% fetal bovine serum (FBS), and 5 ng/mL vascular endothelial growth factor (VEGF), and 10 mM of 2-[4-(2-hydroxyethyl)piperazin-1-yl]ethanesulfonic acid (HEPES).
The cardiac explants were then embedded with oxygen sensors, placed on the MEAs chip, and transferred to a 37° C. temperature-controlled incubation chamber that contains M199 medium supplemented with 1× ITS, 10% FBS, 5 ng/mL VEGF, and 10 mM HEPES to support long term function, as previously described. The explant was continuously point-stimulated at 2 Hz cycle length. Contraction, field potential, and oxygen were assessed using the integrated metabolic-electro-mechanical sensor chip. […]

[2] = system: hiPSC-derived cardiomyocytes; experiment: Live imaging of mitochondrial calcium (Rhod-2AM) and visual contraction analysis in 2D culture; type: cell-based, human; conditions: n=4
[3] = system: vascularized cardiac organoids; experiment: Metabolic flux balance analysis and ATP production in cardiac organoids; type: cell-based, human; conditions: 10 μM KB-R7943, within 20 minutes of exposure
Description: Amperometric 4-analytes sensors (B.LV5) were purchased from Innovative Sensor Technology (IST, Switzerland). Measurements were carried out and calibrated to sensitivity decrease by an on-chip potentiostat (IST, Switzerland). Oxygen, glucose, lactate, and glutamine fluxes were measured by calculating the change in metabolite concentration over time. Glutamine measurement allowed us to calculate lipid metabolism fluxes. Oxidative phosphorylation flux was calculated by dividing the oxygen uptake rate by six. The inventors estimated 32 ATP molecules generated by the complete oxidation of glucose. Glycolysis flux was calculated by dividing the lactate production rate by two, with the maximal rate defined by glucose uptake rate minus the oxidative phosphorylation flux. ATP production in glycolysis was estimated to be two molecules per molecule of glucose. Glutaminolysis was calculated directly by glutamine uptake. ATP production in glutaminolysis was estimated to be three molecules per molecule of lactate generated.

[4] = system: hiPSC-derived cardiomyocytes; experiment: Live imaging of mitochondrial calcium (Rhod-2AM) and visual contraction analysis in 2D culture; type: cell-based, human; conditions: for decrease of magnitude of [Ca2+]m oscillations / reduction of contraction magnitude: n=4
Description: (§1) Fast phase-contrast imaging (17 frames per second) was performed at suitable magnification using an LSM-700 Zeiss microscope. The time-lapse micrograph was analyzed using a custom MATLAB® code. Briefly, multiple regions of interest (ROIs) were selected on the cardiac tissue borders, producing a distinct area with changes representative of the cardiac contraction. Dynamic changes in the ROI intensity were measured over time and converted into beating rates using Fast Fourier Transformation (FFT). Contractility was calculated based on the frequency amplitude magnitude.
For mitochondrial calcium live imaging, different hiPSC-derived cardiomyocytes were cultured in RPMI supplemented with B27 minus insulin, and 0.1% DMSO (control) or […] KB-R7943 mesylate (Tocris Bioscieice, USA), Mean mitochondrial calcium was measured using live imaging of Rhod-2AM dye after 0, 30, and 90 seconds of exposure to DMSO (control) or 10 μM MCU inhibitor KB-R7943 mesylate
Mitochondrial calcium uptake within human iPSC-derived cardiomyocytes was measured using Rhod-2AM dye according to the manufacturer's instructions (Abcam, USA). Cells were loaded with […] Rhod-2AM in RPMI supplemented with B27-I for 30 min at 37° C., washed with PBS, and incubated with RPMI supplemented with […] KB-R7943 or 0.1% DMSO, and B27-I. Measurements were taken continuously using an incubated LSM-700 Zeiss microscope at 5% CO2 and 37° C. Rhod-2AM measurement was conducted by excitation at 552 nm at a 10 Hz sampling rate. Mitochondrial calcium uptake was calculated by the change of the mean emission intensity at 581 nm. The time-lapse micrograph was analyzed using multiple regions of interest (ROIs) and was selected based on Mitotracker staining, producing a distinct area with changes representative to mitochondrial networks. Changes in fluorescent intensity were used to determine oscillation rate and amplitude.

[5] = system: vascularized cardiac organoids; experiment: Integrated metabolic-electro-mechanical sensor chip: simultaneous contraction, field potential and interstitial oxygen; type: cell-based, human; conditions: 10 μM KB-R7943
Description: The MEA design and printed connections enabled access to 45 different electrodes inside the platform intermittently via a compatible sensor circuit (FIGS. 9A-9B). Spontaneous cardiac field potentials (FPs) were recorded from cardiac organoids using an integrated signal conditioning circuit (AD8232®), with a 2-pole adjustable high-pass filter, 3-pole adjustable low-pass filter, adjustable gain, and medical instrumentation amplifiers to extract, amplify, and filter the extracellular field potential of the organoids remotely within the confined well. […] Spontaneous cardiac field potentials were measured at 100 Hz sampling rate in each microwell. Field potential rhythm frequency was calculated in real-time using a custom-made MATLAB® software imposing Fourier Transformation (FFT) on the evolving kinetic data (FIGS. 9C-9D).
Real-time oxygen measurement was performed based on previously described elements. Briefly, phosphorescent ruthenium microprobes (CPOx-50-RuP) show a decrease in phosphorescence decay time as a function of oxygen concentration, allowing to measure the oxygen content. Controlled sinusoidal modulated 532-nm LED signal excites the embedded oxygen sensors and emits a sinusoidal amplitude-modulated light at 605 nm that is shifted in phase due to oxygen quenching. A phase shift is measured between the emission hardware-filtered first detector (PMT), and a second excitation detector (cPMT). […] Measurements were carried out at a 10 Hz sampling rate. Contraction rate and oxygen rhythm frequency were calculated in real-time using a custom-made MATLAB® software imposing Fourier Transformation (FFT) on the evolving kinetic data. Using custom MATLAB code, we calculated the cardiac organoid contraction rates directly from our oxygen reader based on the emission intensity measured in peak-to-peak voltage from the oxygen bead and its displacement using the second PMT system. Cardiac displacement was measured by the embedded oxygen beads inside the cardiac organoids during a contraction. When the beads move at different distances from the focal point, changes in peak-to-peak voltage occurred leading to the detection of the contraction behavior.
For simultaneous real-time oxygen, contraction rate, and field potential measurements, cardiac organoids were cultured in RPMI supplemented with B27 minus insulin, 5 ng/ml VEGF and 0.1% DMSO (control) or 10 μM KB-R7943 mesylate. Real-time oxygen, contraction rate, and field potential were measured after 0, 15, and 25 minutes of exposure to DMSO (control) or 10 μM KB-R7943 mesylate.

[6] = system: hiPSC-derived vascularized cardiac organoids; experiment: Beating of vascularized cardiac organoids under pharmaceutical stimulation; type: cell-based, human
Description: hiPS-derived cardiomyocytes and microvascular cardiac endothelial cells (VEC Technologies, USA) were counted and mixed in a 2:1 ratio in growth factor reduced Matrigel (BD Biosciences, San Jose, CA) at a cell density of 6.8×10^4 cells per μl. A volume of 1.1 μl of the gel-imbedded mixture (7.48×10^4 cells) was injected into each microwell and left to form spontaneously in RPMI-1640 supplemented with B27 minus insulin and 5 ng/ml vascular endothelial growth factor (VEGF-A, Peprotech) until their spontaneous beating was regained after 6-10 days.
as §1

CN(C)C(=N)N=C(N)N [metformin]
reversal of mitoxantrone-induced arrhythmic behavior [1]: reverts the effect, displaying regular heart contraction and field potential; also recorded: reversed this effect
reversal of mitoxantrone-induced arrhythmic behavior ([1]; listed as Metformin): rescues the arrhythmic cardiac behavior
beating rate ([1]; metformin (100 μM) combined with mitoxantrone (10 μM), from 82 BPM): 61 BPM
beating frequency (porcine cardiac tissue; 100 μM metformin concurrent with 10 μM mitoxantrone): 1.4 Hz
increase in mean mitochondrial calcium content ([2]; 100 μM metformin added to 10 μM mitoxantrone treatment): 3.4 fold

O=C1c2c(O)ccc(O)c2C(=O)c2c(NCCNCCO)ccc(NCCNCCO)c21 [mitoxantrone]
effect on mechanical contraction, electrical depolarization and oxygen concentration ([1]; mitoxantrone exposure (10 μM)): markedly decreased
contraction rate ([1]; mitoxantrone exposure (10 μM), from 53 BPM): 79 BPM
beating frequency (cardiac rhythm) (porcine cardiac tissue; female, pig, 10 μM): 2 Hz
decrease in mitochondrial calcium ([2]; 10 μM mitoxantrone alone): 79%

N=C(N)SCCc1ccc(OCc2ccc([N+](=O)[O-])cc2)cc1 [KB-R7943]
effect on ATP generation (production) [3]: decrease in ATP production; also recorded: decrease in ATP generation
effect on [Ca2+]m concentration ([4]; 10 μM KB-R7943): no significant difference
decrease of magnitude of [Ca2+]m oscillations ([4]; 10 μM KB-R7943, 30 seconds): 60%
reduction of contraction magnitude ([4]; 10 μM KB-R7943, 30 seconds): 45%
decrease of magnitude of [Ca2+]m oscillations ([4]; 10 μM KB-R7943, 90 seconds): 78%
reduction of contraction magnitude ([4]; 10 μM KB-R7943, 90 seconds): 70%
effect on cardiomyocyte contractility and [Ca2+]m oscillation amplitude ([4]; 10 μM KB-R7943, acute): dramatically decreases cardiomyocyte contractility, and [Ca^2+]m oscillation amplitude; also recorded: decreases the magnitude of cardiomyocyte contraction
effect on cardiomyocyte contraction frequency (rate) ([4]; 10 μM KB-R7943, short term exposure): without affecting contraction rate; also recorded: did not significantly affect
increase of contraction frequency, oxygen oscillation rate and field potential oscillation frequency (all three rates) ([1]; 10 μM KB-R7943, within 35 minutes of exposure, n=9): 2.5 fold
effect on coupling of mitochondrial and electro-mechanical activity [5]: caused uncoupling between mitochondrial and electro-mechanical activity, resulting in arrhythmic cardiac behavior
effect on magnitude of organoid contraction and depolarization [5]: comparable and parallel decrease
effect on oxygen uptake of the cardiac organoid [5]: progressive decrease in the oxygen uptake
effect on magnitude of oxygen oscillations ([5]; n=9): significantly and progressively decreased

CNC[C@H](O)c1ccc(O)c(O)c1 [epinephrine]
effect on contractility and contraction rate [1]: increases the contractility and contraction rate
effect on mean interstitial oxygen concentration [1]: decreasing the mean interstitial oxygen concentration
increase of contraction [1]: 33%
organoid contraction frequency [1]: 1.95 Hz
contraction (beating) rate [6]: 88±7 bpm

CCCCc1oc2ccccc2c1C(=O)c1cc(I)c(OCCN(CC)CC)c(I)c1 [amiodarone]
decrease of contraction / contraction amplitude ([6]; 10 μM amiodarone, n=6): 28%
contraction rate ([6]; 10 μM amiodarone, spontaneous beating 66±5 bpm, n=6): 52±4 bpm
